Some test systems named below: NCI-H522; OVCAR-3; UACC-257; 786-0; UACC-62; EKVX; SK-MEL-28; U-251; SF-295; SNB-19; KM12; SN12C; HCT-116; OVCAR-4; HCC 2998; HOP-92.
Holding throughout (test): DTP human tumour cell line panel, 48 h

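Exposure lasted 48 hours, with cells grown in 96-well plates and compounds tested at five concentrations. GI50: concentration for 50% inhibition of growth.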 Calls of active or inactive are those of the source. Cut-off read from the data, not from the text of the source: active = GI50 up to about 1.1 µM and inactive = higher.

As to `COc1ccc(C(=O)Nc2ccccc2)cc1[N+](=O)[O-]`, the GI50 in the assay on NCI-H522 was 87.9 µM (inactive); in the assay with OVCAR-3 it was 58.9 µM (inactive); in the assay on UACC-257, > 100 µM (inactive); in the assay on 786-0 it was > 100 µM (inactive); with UACC-62, > 100 µM (inactive); in the assay on EKVX it was 46.6 µM (inactive). Also, the GI50 is > 100 µM (inactive) in the assay on SK-MEL-28; > 100 µM (inactive) in the assay with U-251; > 100 µM (inactive) with SF-295; > 100 µM (inactive) with SNB-19; 89.7 µM (inactive) with KM12; > 100 µM (inactive) in the assay with SN12C.
`Cc1cc(C)nc(NS(=O)(=O)c2ccc(NC(=O)c3cccn4c(=O)c5ccccc5nc34)cc2)n1`: the GI50 in the assay on NCI-H522 was 21.5 µM (inactive); in the assay with 786-0 it was > 100 µM (inactive); in the assay on HCT-116, 53.5 µM (inactive); with UACC-62, 20.5 µM (inactive); in the assay with EKVX, 26.1 µM (inactive); in the assay with OVCAR-4 it was 27.9 µM (inactive). For the same molecule, the GI50 was 38.5 µM (inactive) in the assay with SK-MEL-28; 37.4 µM (inactive) in the assay with U-251; > 100 µM (inactive) in the assay on SF-295; > 100 µM (inactive) in the assay on HCC 2998; 62.5 µM (inactive) in the assay with SNB-19; 41.1 µM (inactive) in the assay with KM12. Further, in the assay with SN12C, the GI50 is 53.2 µM (inactive).
Regarding `Cc1cc(O)cc2c1O[C@@]1(C)CCC3[C@@]4(C)CC[C@H](O)C(C)(C)C4CC[C@@]3(C)[C@H]1C2` (some centres not stated), the GI50 in the assay on NCI-H522 is 6.52 µM (inactive); in the assay on OVCAR-3 it was 6.31 µM (inactive); in the assay on UACC-257 it was 12.9 µM (inactive); in the assay on 786-0 it was 2.32 µM (inactive); in the assay on HCT-116 it was 4.31 µM (inactive); with UACC-62 it was 8.11 µM (inactive). For the same molecule, the GI50 in the assay with EKVX was 12.6 µM (inactive); in the assay on HOP-92 it was 5.09 µM (inactive); in the assay on SK-MEL-28 it was 6.82 µM (inactive); in the assay with U-251, 2.84 µM (inactive); with SF-295 it was 2.35 µM (inactive); with KM12, 4.31 µM (inactive). The GI50 with SN12C was 11.6 µM (inactive).
On to `CC(=O)Nc1ccc(-c2nnc(SCC(=O)Nc3cccc(Cl)c3)o2)cc1`, for which the GI50 in the assay with NCI-H522 is 5.86 µM (inactive); in the assay with OVCAR-3 it was 7.11 µM (inactive); in the assay with UACC-257, 17.3 µM (inactive); in the assay on 786-0, 6.49 µM (inactive); with HCT-116, 12.9 µM (inactive); with UACC-62, 15.4 µM (inactive). In addition, the GI50 with EKVX is 25.3 µM (inactive); in the assay on OVCAR-4, 17.9 µM (inactive); with SK-MEL-28, 17.9 µM (inactive); in the assay with U-251, 9.84 µM (inactive); in the assay on SF-295, 18.8 µM (inactive); in the assay on HCC 2998 it was 18.6 µM (inactive). Moreover, the values for the GI50 with SNB-19, with KM12 and in the assay with SN12C were 22 µM (inactive), 16 µM (inactive) and 16 µM (inactive), respectively.
For `O=C(c1cccc2ccccc12)N1CCC(C2CCN(C(=O)c3cccc4ccccc34)CC2)CC1`, the GI50 in the assay on NCI-H522, in the assay with OVCAR-3, with UACC-257, with 786-0, in the assay with HCT-116 and in the assay on UACC-62 was > 100 µM (inactive) each time. Also, the GI50 in the assay with EKVX, with HOP-92, with SK-MEL-28, in the assay on U-251, with SF-295 and with KM12 was > 100 µM (inactive) throughout. In the assay with SN12C, the GI50 is > 100 µM (inactive).
For `CN(C)C(=S)/N=c1\ss/c(=N\C(=S)N(C)C)n1Cc1ccco1`, the GI50 in the assay with NCI-H522, in the assay on UACC-257, with 786-0, in the assay on HCT-116, with UACC-62 and in the assay with OVCAR-4 was > 100 µM (inactive) in each case. The GI50 in the assay with SK-MEL-28, in the assay with U-251, in the assay with HCC 2998, in the assay with SNB-19, in the assay on KM12 and with SN12C was > 100 µM (inactive) in each case.
In the case of `N#CSCc1nc2ccc(Cl)cc2c(-c2ccccc2)[n+]1[O-]`, the GI50 is 26.8 µM (inactive) with OVCAR-3; 42.3 µM (inactive) in the assay with UACC-257; 18.2 µM (inactive) with 786-0; 19.7 µM (inactive) with HCT-116; 19.2 µM (inactive) with UACC-62; 23.2 µM (inactive) with EKVX. The GI50 in the assay with OVCAR-4 was 25.5 µM (inactive); in the assay on HOP-92, 16 µM (inactive); with SK-MEL-28, 14.5 µM (inactive); with U-251, 29.4 µM (inactive); with SF-295, 35.2 µM (inactive); in the assay on HCC 2998, 15.6 µM (inactive). The values for the GI50 in the assay with SNB-19, in the assay on KM12 and in the assay with SN12C were 41.6 µM (inactive), 22 µM (inactive) and 20 µM (inactive), respectively.
Regarding `c1ccc2c(c1)N=C(c1cccc3ccccc13)CC(c1cccc3ccccc13)S2` (configuration not stated), the GI50 is 2.54 µM (inactive) in the assay with NCI-H522; 2.77 µM (inactive) in the assay with OVCAR-3; 14.7 µM (inactive) in the assay with UACC-257; 3.8 µM (inactive) in the assay on 786-0; 3.19 µM (inactive) with HCT-116; 5.21 µM (inactive) with UACC-62. The GI50 in the assay with EKVX was 14 µM (inactive); in the assay with OVCAR-4 it was 3.68 µM (inactive); in the assay with SK-MEL-28, 7.36 µM (inactive); in the assay on U-251, 2.63 µM (inactive); in the assay on SF-295 it was 9.77 µM (inactive); in the assay with HCC 2998, 4.21 µM (inactive). Further, the GI50 is 4.33 µM (inactive) in the assay on SNB-19, 2.91 µM (inactive) in the assay with KM12 and 4.79 µM (inactive) in the assay with SN12C.
For `COC(=O)CC(=O)OC`, the GI50 with OVCAR-3, in the assay on UACC-257, in the assay with 786-0, in the assay on HCT-116, with UACC-62 and with EKVX was > 100 µM (inactive) throughout. For the same molecule, the GI50 in the assay with OVCAR-4, in the assay with HOP-92, with U-251, in the assay on SF-295, in the assay on HCC 2998 and with SNB-19 was > 100 µM (inactive) each time. In addition, the GI50 in the assay on KM12 and in the assay on SN12C was > 100 µM (inactive) throughout.
As to `Cc1ccc(/C=C/C(=O)c2cccc3ccccc23)cc1`, the GI50 in the assay on NCI-H522 is 17.1 µM (inactive); in the assay on OVCAR-3, 17.5 µM (inactive); with UACC-257, 18.5 µM (inactive); with 786-0, 15 µM (inactive); in the assay on HCT-116 it was 11.5 µM (inactive); with UACC-62 it was 17.4 µM (inactive). In addition, the GI50 was 17.8 µM (inactive) in the assay on EKVX; 13.4 µM (inactive) in the assay on OVCAR-4; 18 µM (inactive) in the assay with SK-MEL-28; 13 µM (inactive) in the assay with U-251; 17.7 µM (inactive) in the assay with SF-295; 22.9 µM (inactive) in the assay with HCC 2998. Further, the GI50 in the assay with SNB-19 was 16.1 µM (inactive); with KM12 it was 13.2 µM (inactive); in the assay with SN12C, 14.3 µM (inactive).
As to `CCCCCC(=O)C(C)C1=Nc2nnc(CCCCCCCc3nnc4n3C(=O)C(C(C)C(=O)CCCCC)=N4)n2C1=O` (configuration not stated), the GI50 in the assay with NCI-H522, with OVCAR-3, in the assay on UACC-257, in the assay with 786-0, with HCT-116 and in the assay with UACC-62 was > 100 µM (inactive) throughout. Also, the GI50 in the assay on EKVX, in the assay with OVCAR-4, in the assay on SK-MEL-28, with U-251, in the assay on SF-295 and in the assay on HCC 2998 was > 100 µM (inactive) each time. The GI50 with SNB-19, in the assay on KM12 and in the assay with SN12C was > 100 µM (inactive) in each case.
As to `O=C1NC2C3CC(OCc4ccccc4)(OCc4ccccc4)C2OC3O1` (configuration not stated), the GI50 with OVCAR-3 was > 50 µM (inactive); with UACC-257 it was 24.8 µM (inactive); with 786-0, > 50 µM (inactive); in the assay on HCT-116, > 50 µM (inactive); with UACC-62, > 50 µM (inactive); in the assay on OVCAR-4 it was < 0.005 µM (active). Moreover, the GI50 with HOP-92, in the assay with SK-MEL-28, with SF-295, in the assay on HCC 2998, with KM12 and with SN12C was > 50 µM (inactive) in each case.
On to `CCOC(=O)c1[nH]c2c(OC)n[n+]([O-])cc2c1[N+](=O)[O-]`, for which the GI50 in the assay with NCI-H522 was 19.3 µM (inactive); in the assay with OVCAR-3, 20.6 µM (inactive); in the assay with UACC-257 it was 19 µM (inactive); in the assay on 786-0, 16.4 µM (inactive); with HCT-116, 19 µM (inactive); in the assay on UACC-62, 19.5 µM (inactive). The GI50 is 21.3 µM (inactive) in the assay with EKVX; 19.8 µM (inactive) in the assay with OVCAR-4; 15.7 µM (inactive) in the assay with SK-MEL-28; 17 µM (inactive) with U-251; 37.2 µM (inactive) with SF-295; 10 µM (inactive) in the assay on HCC 2998. For the same molecule, the values for the GI50 with SNB-19, in the assay on KM12 and with SN12C were 25.6 µM (inactive), 15 µM (inactive) and 20.4 µM (inactive), respectively.
In the case of `Cc1c2c(cc[n+]1C)O[B-](c1ccccc1)(c1ccccc1)O2`, the GI50 is 36.8 µM (inactive) with NCI-H522; 43.7 µM (inactive) in the assay with OVCAR-3; 55.5 µM (inactive) in the assay on UACC-257; 71.9 µM (inactive) in the assay on 786-0; 46.7 µM (inactive) with HCT-116; 16.3 µM (inactive) in the assay on UACC-62. Further, the GI50 in the assay with EKVX is 26.5 µM (inactive); in the assay with OVCAR-4, 64.4 µM (inactive); with U-251, 53.2 µM (inactive); in the assay with SF-295, 53.6 µM (inactive); in the assay on HCC 2998 it was 27.8 µM (inactive); in the assay on KM12, 59.8 µM (inactive). Moreover, in the assay with SN12C, the GI50 was 51.8 µM (inactive).

In general, GI50 refers to the concentration at which growth is held to half of that of the control.
